Test results reported in patent US20220175761A1, “BI-LIGAND DRUG CONJUGATE AND USE THEREOF” (COHERENT BIOPHARMA (SUZHOU), LIMITED, priority 2019, published 2022).
Square brackets hold non-standard residues; d marks the D form. Peptide text beside a SMILES is read from it. * marks the point of attachment. Dolaproine = CO[C@@H]([C@@H]1CCCN1)[C@@H](C)C(=O)O; Dil = CC[C@H](C)[C@H](NC)[C@@H](CC(=O)O)OC; X1 = C[C@@H](N*)[C@@H](O)c1ccccc1; NMeV = CN[C@H](C(=O)O)C(C)C

Columns and labels:
[1] = tested on: KB, T-47D, NCI-H460, CALU-3, HuH-7, and LNCaP tumor cell lines; assay: Inhibition of tumor cell expansion, CCK8 (CB-20BK); type: cell-based, human
Experimental: Cell lines: KB human oral epidermoid carcinoma cells, T-47D human breast cancer cells, NCI-H460 human lung cancer cells, CALU-3 human lung adenocarcinoma cells, HuH-7 human liver cancer cells and LNCaP human prostate cancer cells
The cells were prepared in advance, digested with trypsin, collected and counted; with a complete cell culture medium, KB cells were diluted to 2.5×10^4 cells/ml, T-47D cells were diluted to 1.3×10^4 cells/ml, NCI-H460 cells were diluted to 3.5×10^4 cells/ml, CALU-3 cells were diluted to 4.0×10^4 cells/ml, HuH-7 cells were diluted to 3.0×10^4 cells/ml, and LNCaP cells were diluted to 8.0×10^4 cells/ml; 100 μl of the diluted cell solution was added to each well of 96-well plates; and negative control and blank control wells were set on each plate. The 96-well plates added with the cells were placed in an incubator at 37° C., 5% CO2 for culturing overnight.
The samples were diluted with a culture medium to desired concentrations (see Table 8). […]
To each well, 15 μl (10% of the liquid volume in a well) of a color developing solution from CCK-8 was added; the plates were incubated at 37° C. for an appropriate time (try to keep the OD value in the range of 1.0-2.0); the covers of the 96-well plates were removed, and the plates were read at 450 nm on a microplate reader (Molecular Devices Spectra MAX Plus). […]

[2] = target: T1, FOLR1 (Homo sapiens, UniProt P15328); assay: BIAcore T200 binding affinity to FOLR1 (CM5 chip conjugated with FOLR1)
T1 construct: purchased R&D System 5646-FR
Source text: Buffer: HBS-EP+ buffer 10× (GE, Cat #: BR100669), diluted 10 folds with deionized water before use.
In the experiment, CM5 chip was conjugated with ligand FOLR1 (R&D System, Cat #: 5646-FR).

[3] = target: FOLH1 (Homo sapiens, UniProt Q04609); assay: BIAcore T200: binding of FOLH1 to compound-FOLR1 complex; design: purchased Sino Biologicals (FOLH1); R&D System (FOLR1) 15877-H07H (FOLH1); 5646-FR (FOLR1)
Source text: CM5 chip was conjugated with a ligand: FOLR1 (R&D System, Cat #: 5646-FR)
Analyte: CB-20BK, FA-MMAE and FOLH1 (Sino Biologicals, Cat #: 15877-H07H)
According to BIAcore T200 (GE) operating manual, FOLR1 was conjugated to the CM5 chip; CB-20BK or FA-MMAE was loaded first, and then FOLH1 was loaded; and the binding of FOLH1 to the CB-20BK-FOLR1 complex was detected.

[4] = Body weight and clinical observation in the LU1206 study; conditions: 0.375 mg/kg on day 1, 8, 15
Experimental: BALB/c nude mice bore tumors subcutaneously and, when the tumor volume reached about 150 mm^3, were grouped into: low-dose, medium-dose and high-dose test sample groups, a small molecule MMAE control group, a targeting polypeptide 20BK-SM09 control group, and a blank control group (a total of 6 groups, and 8 mice per group); the mice were administered on day 1, day 8 and day 15 after the grouping; and the observation was continued for 14 days after the last administration.

[5] = FOLR1 on CM5 chip, N/D = no specific binding was detected

Chain of FOLH1 (Q04609 44-750 limits assumed): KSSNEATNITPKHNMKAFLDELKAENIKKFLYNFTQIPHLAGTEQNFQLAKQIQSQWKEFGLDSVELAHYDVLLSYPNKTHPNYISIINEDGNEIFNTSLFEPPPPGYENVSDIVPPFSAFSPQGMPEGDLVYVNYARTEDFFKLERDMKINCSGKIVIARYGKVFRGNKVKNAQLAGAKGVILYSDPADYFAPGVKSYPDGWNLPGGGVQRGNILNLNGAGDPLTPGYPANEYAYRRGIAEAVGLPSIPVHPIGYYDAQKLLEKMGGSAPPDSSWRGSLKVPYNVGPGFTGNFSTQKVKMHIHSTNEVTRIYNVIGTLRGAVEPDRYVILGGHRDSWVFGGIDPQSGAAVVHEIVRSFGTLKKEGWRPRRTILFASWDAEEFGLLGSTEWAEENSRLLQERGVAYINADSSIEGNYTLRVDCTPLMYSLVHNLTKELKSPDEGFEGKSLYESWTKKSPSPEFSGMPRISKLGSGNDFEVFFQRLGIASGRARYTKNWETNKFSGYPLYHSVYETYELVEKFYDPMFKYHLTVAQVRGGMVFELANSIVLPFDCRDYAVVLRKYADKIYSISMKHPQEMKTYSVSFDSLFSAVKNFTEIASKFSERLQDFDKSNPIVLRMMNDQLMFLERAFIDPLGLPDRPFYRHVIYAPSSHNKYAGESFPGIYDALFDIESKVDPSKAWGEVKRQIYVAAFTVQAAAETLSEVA
Chain of FOLH1 (P15328 25-233 partner limits assumed): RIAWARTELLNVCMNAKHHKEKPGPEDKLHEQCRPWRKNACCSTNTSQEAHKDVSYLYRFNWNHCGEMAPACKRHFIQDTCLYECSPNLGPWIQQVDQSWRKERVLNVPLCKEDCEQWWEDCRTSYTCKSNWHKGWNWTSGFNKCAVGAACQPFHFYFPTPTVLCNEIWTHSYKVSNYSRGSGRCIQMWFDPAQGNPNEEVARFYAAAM
T1 sequence (P15328 25-233 limits assumed): as the sequence (P15328 25-233 partner limits assumed) above

Row | SMILES | inhibitory effect on growth and expansion of tumor cell lines ([1]; 72 hours, CCK-8) | IC50 compared between cell lines ([1]; T-47D, KB, LNCaP, HuH-7 and CALU-3 versus NCI-H460) | specific binding to FOLR1 (in words) ([2]; BIAcore T200) | Kd [2, 5] [nM] | kd [2, 5] [s⁻¹] | kon ([2]; FOLR1 on CM5 chip, N/D = no specific binding was detected, read-out: ka) [M⁻¹ s⁻¹] | Binding of compound-FOLR1 complex to FOLH1 solution ([3]; FOLH1 concentration 0.0625 μM) [RU] | Binding of compound-FOLR1 complex to FOLH1 solution ([3]; FOLH1 concentration 0.125 μM) [RU] | Binding of compound-FOLR1 complex to FOLH1 solution ([3]; FOLH1 concentration 0.25 μM) [RU] | Binding of compound-FOLR1 complex to FOLH1 solution ([3]; FOLH1 concentration 0.5 μM) [RU] | amount of FOLH1 bound to compound-FOLR1 complex (in words) ([3]; FOLH1 solution at a high concentration) | Weight [4] [g]
1 | CC[C@H](C)[C@@H]([C@@H](CC(=O)N1CCC[C@H]1[C@H](OC)[C@@H](C)C(=O)N[C@H](C)[C@@H](O)c1ccccc1)OC)N(C)C(=O)[C@@H](NC(=O)[C@H](C(C)C)N(C)C(=O)OCc1ccc(NC(=O)C(CCCNC(N)=O)NC(=O)[C@@H](NC(=O)CCCCCN2C(=O)CC(SC[C@H](NC(=O)[C@H](CCCCN)NC(=O)[C@H](CC(=O)O)NC(=O)[C@H](CC(=O)O)NC(=O)Cc3ccc(CNC(=O)NCCCC[C@H](NC(=O)N[C@@H](CCC(=O)O)C(=O)O)C(=O)O)cc3)C(=O)N[C@@H](CCCCNC(=O)CC[C@H](NC(=O)c3ccc(NCc4cnc5[nH]c(N)nc(=O)c5n4)cc3)C(=O)O)C(N)=O)C2=O)C(C)C)cc1)C(C)C (stereo partly drawn) [CB-20BK] | has an inhibitory effect | significantly lower | specifically binds to FOLR1 with a good affinity | 0.127 | 0.000131 | 1.03e+06 | −0.9 | 4.6 | 14.1 | 23.9 | significantly higher than that bound to an FA-MMAE-FOLR1 complex | –
2 | CC[C@H](C)[C@@H]([C@@H](CC(=O)N1CCC[C@H]1[C@H](OC)[C@@H](C)C(=O)N[C@H](C)[C@@H](O)c1ccccc1)OC)N(C)C(=O)[C@@H](NC(=O)[C@@H](NC)C(C)C)C(C)C [MMAE, monomethyl auristatin E] (H-[NMeV]V[Dil][Dolaproine]-X1) | – | – | – | – | – | – | – | – | – | – | – | 23.6
